Reference: PubChem BioAssay (NCI)
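The compound was tested at five concentrations on cells cultured in 96-well plates, with a 48-hour exposure period. Abbreviation: GI50, concentration required for 50% inhibition of growth. Definition used: TGI = concentration required for complete inhibition of growth.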

How the values were obtained:
Experiment in all cases: NCI-60 cell line screen, 48 h
[1] = system: 786-0 renal
[2] = system: A498 renal
[3] = system: A549 NSCLC
[4] = system: ACHN renal
[5] = system: BT-549 breast
[6] = system: CAKI-1 renal
[7] = system: CCRF-CEM leukemia
[8] = system: COLO 205 colon
[9] = system: DU-145 prostate
[10] = system: HCC-2998 colon
[11] = system: HCT-116 colon
[12] = system: HCT-15 colon
[13] = system: HL-60(TB) leukemia
[14] = system: HOP-62 NSCLC
[15] = system: HOP-92 NSCLC
[16] = system: HS 578T breast
[17] = system: HT29 colon
[18] = system: IGROV1 ovarian
[19] = system: K-562 leukemia
[20] = system: KM12 colon
[21] = system: LOX IMVI melanoma
[22] = system: M14 melanoma
[23] = system: MALME-3M melanoma
[24] = system: MCF7 breast
[25] = system: MDA-MB-231 breast
[26] = system: MDA-MB-435
[27] = system: MOLT-4 leukemia
[28] = system: NCI-H226 lung
[29] = system: NCI-H23 lung
[30] = system: NCI-H460 lung
[31] = system: NCI-H522 lung
[32] = system: NCI/ADR-RES ovarian
[33] = system: OVCAR-3 ovarian
[34] = system: OVCAR-4 ovarian
[35] = system: OVCAR-5 ovarian
[36] = system: OVCAR-8 ovarian
[37] = system: PC-3 prostate
[38] = system: RPMI-8226 leukemia
[39] = system: RXF 393 renal
[40] = system: SF-268 CNS
[41] = system: SF-295 CNS
[42] = system: SF-539 CNS
[43] = system: SK-MEL-2 melanoma
[44] = system: SK-MEL-28 melanoma
[45] = system: SK-MEL-5 melanoma
[46] = system: SK-OV-3 ovarian
[47] = system: SN12C renal
[48] = system: SNB-19 CNS
[49] = system: SNB-75 CNS
[50] = system: SR leukemia
[51] = system: SW-620 colon
[52] = system: T-47D breast
[53] = system: TK-10 renal
[54] = system: U251 CNS
[55] = system: UACC-257 melanoma
[56] = system: UACC-62 melanoma
[57] = system: UO-31 renal

What does the source list for `Cn1c(=O)c(Oc2ccc(F)cc2F)cc2cnc(NC3CCS(=O)(=O)CC3)nc21`?
GI50 [1]: > 25 µM; TGI [1]: > 25 µM; GI50 [2]: > 25 µM; TGI [2]: > 25 µM; GI50 [3]: > 25 µM; TGI [3]: > 25 µM; GI50 [4]: > 14.3 µM; TGI [4]: > 25 µM; GI50 [5]: > 25 µM; TGI [5]: > 25 µM; GI50 [6]: > 25 µM; TGI [6]: > 25 µM; GI50 [7]: > 25 µM; TGI [7]: > 25 µM; GI50 [8]: > 25 µM; TGI [8]: > 25 µM; GI50 [9]: > 25 µM; TGI [9]: > 25 µM; GI50 [10]: > 25 µM; TGI [10]: > 25 µM; GI50 [11]: > 25 µM; TGI [11]: > 25 µM; GI50 [12]: > 25 µM; TGI [12]: > 25 µM; GI50 [13]: > 25 µM; TGI [13]: > 25 µM; GI50 [14]: > 14.8 µM; TGI [14]: > 25 µM; GI50 [15]: 5.23 µM; TGI [15]: > 25 µM; GI50 [16]: > 25 µM; TGI [16]: > 25 µM; GI50 [17]: > 25 µM; TGI [17]: > 25 µM; GI50 [18]: > 21.2 µM; TGI [18]: > 25 µM; GI50 [19]: > 25 µM; TGI [19]: > 25 µM; GI50 [20]: > 25 µM; TGI [20]: > 25 µM; GI50 [21]: > 25 µM; TGI [21]: > 25 µM; GI50 [22]: > 25 µM; TGI [22]: > 25 µM; GI50 [23]: > 25 µM; TGI [23]: > 25 µM; GI50 [24]: > 25 µM; TGI [24]: > 25 µM; GI50 [25]: > 22 µM; TGI [25]: > 25 µM; GI50 [26]: > 25 µM; TGI [26]: > 25 µM; GI50 [27]: > 25 µM; TGI [27]: > 25 µM; GI50 [28]: > 25 µM; TGI [28]: > 25 µM; GI50 [29]: > 25 µM; TGI [29]: > 25 µM; GI50 [30]: > 25 µM; TGI [30]: > 25 µM; GI50 [31]: > 14.3 µM; TGI [31]: > 25 µM; GI50 [32]: > 25 µM; TGI [32]: > 25 µM; GI50 [33]: > 25 µM; TGI [33]: > 25 µM; GI50 [34]: > 25 µM; TGI [34]: > 25 µM; GI50 [35]: > 25 µM; TGI [35]: > 25 µM; GI50 [36]: > 25 µM; TGI [36]: > 25 µM; GI50 [37]: > 25 µM; TGI [37]: > 25 µM; GI50 [38]: > 25 µM; TGI [38]: > 25 µM; GI50 [39]: > 25 µM; TGI [39]: > 25 µM; GI50 [40]: > 18.9 µM; TGI [40]: > 25 µM; GI50 [41]: > 12.4 µM; TGI [41]: > 25 µM; GI50 [42]: > 25 µM; TGI [42]: > 25 µM; GI50 [43]: > 25 µM; TGI [43]: > 25 µM; GI50 [44]: > 25 µM; TGI [44]: > 25 µM; GI50 [45]: > 25 µM; TGI [45]: > 25 µM; GI50 [46]: > 20 µM; TGI [46]: > 25 µM; GI50 [47]: > 25 µM; TGI [47]: > 25 µM; GI50 [48]: > 25 µM; TGI [48]: > 25 µM; GI50 [49]: > 14.2 µM; TGI [49]: > 25 µM; GI50 [50]: > 25 µM; TGI [50]: > 25 µM; GI50 [51]: > 25 µM; TGI [51]: > 25 µM; GI50 [52]: > 19.8 µM; TGI [52]: > 25 µM; GI50 [53]: > 25 µM; TGI [53]: > 25 µM; GI50 [54]: > 25 µM; TGI [54]: > 25 µM; GI50 [55]: > 25 µM; TGI [55]: > 25 µM; GI50 [56]: > 25 µM; TGI [56]: > 25 µM; GI50 [57]: > 25 µM; TGI [57]: > 25 µM
